Columns and labels:
[1] = tested on: GBM8401; test: MTT assay, GBM8401 tumor cell; conditions: for Cell survival rate (%) GBM8401: concentration 10 μM, tumor cell; for inhibitory effect against tumor cell GBM8401: survival rate less than 80%
[2] = tested on: GBM8901; test: MTT assay, GBM8901 tumor cell; conditions: for Cell survival rate (%) GBM8901: concentration 10 μM, tumor cell
[3] = tested on: SVG p12; test: MTT assay, SVG p12 normal cell; conditions: for Cell survival rate (%) SVG p12: concentration 10 μM, normal cell
[4] = tested on: SVG p12, GBM8401 and GBM8901; test: MTT assay, normal cell versus tumor cells (categories 39-3 to 39-7); conditions: tumor cell survival rate less than 80%; for category 39-5: survival rate higher than 80% for normal cell SVG p12 and only inhibits growth of tumor cell GBM8901: FIG. 5C; for category 39-3: survival rate higher than 80% for normal cell SVG p12 and inhibits growth of both tumor cells GBM8401 and GBM8901: FIG. 5A
[5] = tested on: telomerase (total cell lysates of lung cancer cell line H1299); test: Telomeric Repeat Amplification Protocol (TRAP) assay, screen of telomerase inhibitors; format: biochemical, human; conditions: 10 μM
Experimental: Telomeric Repeat Amplification Protocol (TRAP) Assay:
Telomerase activity was detected by a modified version of the general TRAP protocol. Telomerase products were resolved by 10% polyacrylamide gel electrophoresis and visualized by staining with SYBER Green. As a source of telomerase, the total cell lysates derived from lung cancer cell line H1299 cells were used. Protein concentration of the lysates was assayed using Bio-Rad protein assay kit using BSA standards.
In the TRAP assay, if a compound can stabilize the G-quadruplex structure such that telomerase can not act on telomere, then the effect of inhibiting the telomerase can be achieved. In the FIG. 2A to FIG. 2C, DMSO treatment represents as the positive control group (P); while a negative control group (N) used 5 μl of 0.1 mg/ml RNase A (CLONTECH) in the assay. It could be observed that a number of telomeric fragments were detected in the positive control group (P), while none was detected in the negative control group (N). 10 μM was selected as the concentration used to screen compounds.

`CCCCSc1nc2ccc3c(c2[nH]1)C(=O)c1ccccc1C3=O` [f1-3, 2-(Butylthio)-1H-anthra[1,2-d]imidazole-6,11-dione] was tested, and the “Cell survival rate (%) GBM8401” value [1] was 78 ± 16%, the “Cell survival rate (%) GBM8901” value [2] was 10 ± 4% and the “Cell survival rate (%) SVG p12” value [3] was 98 ± 7%. The “category 39-5: survival rate higher than 80% for normal cell SVG p12 and only inhibits growth of tumor cell GBM8901” value [4] was “in this category”.

`Cc1ccccc1CSc1nc2ccc3c(c2[nH]1)C(=O)c1ccccc1C3=O` [f1-4, 2-(2-Methylbenzylthio)-1H-anthra[1,2-d]imidazole-6,11-dione] was tested, and the “Cell survival rate (%) GBM8401” value [1] was 25 ± 10%, the “Cell survival rate (%) GBM8901” value [2] was 18 ± 8% and the “Cell survival rate (%) SVG p12” value [3] was 58 ± 5%.

With `COC(=O)CCCSc1nc2ccc3c(c2[nH]1)C(=O)c1ccccc1C3=O` [f1-5, Methyl-(6,11-dioxo-6,11-dihydro-1H-anthra[1,2-d]imidazol-2-ylthio)butanoate] the “Cell survival rate (%) GBM8401” value [1] was 70 ± 10%, the “Cell survival rate (%) GBM8901” value [2] was 80 ± 2% and the “Cell survival rate (%) SVG p12” value [3] was 92 ± 5%.

`COC(=O)/C=C/CSc1nc2ccc3c(c2[nH]1)C(=O)c1ccccc1C3=O` [f1-6, (E)-methyl 4-(6,11-dioxo-6,11-dihydro-1H-anthra[1,2-d]imidazol-2-ylthio)but-2-enoate] was tested, and the “Cell survival rate (%) GBM8401” value [1] was 82 ± 7%, the “Cell survival rate (%) GBM8901” value [2] was 44 ± 5% and the “Cell survival rate (%) SVG p12” value [3] was 90 ± 6%. The “category 39-5: survival rate higher than 80% for normal cell SVG p12 and only inhibits growth of tumor cell GBM8901” value [4] was “in this category”.

With `C#CCSc1nc2ccc3c(c2[nH]1)C(=O)c1ccccc1C3=O` [f1-7, 2-(prop-2-ynylthio)-1H-anthra[1,2-d]imidazole-6,11-dione] the “Cell survival rate (%) GBM8401” value [1] was 38 ± 10%, the “Cell survival rate (%) GBM8901” value [2] was 7 ± 2% and the “Cell survival rate (%) SVG p12” value [3] was 98 ± 2%. The “category 39-5: survival rate higher than 80% for normal cell SVG p12 and only inhibits growth of tumor cell GBM8901” value [4] was “in this category”.

For `O=C1c2ccccc2C(=O)c2c1ccc1nc(SCCCCCl)[nH]c21` [f1-8, 2-(4-Chlorobutylthio)-1H-anthra[1,2-d]imidazole-6,11-dione], the “Cell survival rate (%) GBM8401” value [1] was 43 ± 10%, the “Cell survival rate (%) GBM8901” value [2] was 65 ± 10% and the “Cell survival rate (%) SVG p12” value [3] was 66 ± 3%.

For `O=C1c2ccccc2C(=O)c2c1ccc1nc(SCCCCCCCl)[nH]c21` [f1-10, 2-(6-Chlorohexylthio)-1H-anthra[1,2-d]imidazole-6,11-dione], the “Cell survival rate (%) GBM8401” value [1] was 78 ± 5%, the “Cell survival rate (%) GBM8901” value [2] was 60 ± 2% and the “Cell survival rate (%) SVG p12” value [3] was 81 ± 1%. The “category 39-3: survival rate higher than 80% for normal cell SVG p12 and inhibits growth of both tumor cells GBM8401 and GBM8901” value [4] was “in this category”.

For `O=C1c2ccccc2C(=O)c2c1ccc1nc(SCCN3CCCCC3)[nH]c21` [f1-12, 2-(2-(Piperidin-1-yl)ethylthio)-1H-anthra[1,2-d]imidazole-6,11-dione], the “inhibition effect against telomerase” value [5] was “exhibited inhibition effect against telomerase”, the “Cell survival rate (%) GBM8401” value [1] was 6 ± 13% and the “Cell survival rate (%) GBM8901” value [2] was 42 ± 8%. For the same compound, the “Cell survival rate (%) SVG p12” value [3] was 22 ± 8%.

In the case of `O=C1c2ccccc2C(=O)c2c1ccc1nc(SCCN3CCOCC3)[nH]c21` [f1-13, 2-(2-morpholinoethylthio)-1H-anthra[1,2-d]imidazole-6,11-dione], the “Cell survival rate (%) GBM8401” value [1] is reported as 38 ± 9%, the “Cell survival rate (%) GBM8901” value [2] is reported as 68 ± 2% and the “Cell survival rate (%) SVG p12” value [3] is reported as 62 ± 8%.

For `O=C1c2ccccc2C(=O)c2c1ccc1nc(SCCCN3CCCCC3)[nH]c21` [f1-14, 2-(3-(piperidin-1-yl)propylthio)-1H-anthra[1,2-d]imidazole-6,11-dione], the “Cell survival rate (%) GBM8401” value [1] was 6 ± 10%, the “Cell survival rate (%) GBM8901” value [2] was 10 ± 2% and the “Cell survival rate (%) SVG p12” value [3] was 12 ± 1%.

For `O=C1c2ccccc2C(=O)c2c1ccc1nc(SCC(=O)N3CCOCC3)[nH]c21` [f1-16, 2-(2-morpholino-2-oxoethylthio)-1H-anthra[1,2-d]imidazole-6,11-dione], the “Cell survival rate (%) GBM8401” value [1] was 30 ± 9%, the “Cell survival rate (%) GBM8901” value [2] was 39 ± 2% and the “Cell survival rate (%) SVG p12” value [3] was 60 ± 1%.

With `O=C1c2ccccc2C(=O)c2c1ccc1nc(SCCC(=O)N3CCOCC3)[nH]c21` [f1-17, 2-(3-morpholino-3-oxopropylthio)-1H-anthra[1,2-d]imidazole-6,11-dione] the “Cell survival rate (%) GBM8401” value [1] was 23 ± 10%, the “Cell survival rate (%) GBM8901” value [2] was 48 ± 1% and the “Cell survival rate (%) SVG p12” value [3] was 80 ± 0%. The “without cell toxicity for normal cell SVGP p12” value ([3]; survival rate higher than 80%) was “without cell toxicity for normal cell SVGP p12” and the “category 39-4: survival rate higher than 80% for normal cell SVG p12 and only inhibits growth of tumor cell GBM8401” value ([4]; FIG. 5B) was “in this category”.

With `CCN(CC)C(=O)CSc1nc2ccc3c(c2[nH]1)C(=O)c1ccccc1C3=O` [f1-18, 2-(6,11-dioxo-6,11-dihydro-1H-anthra[1,2-d]imidazol-2-ylthio)-N,N-diethylacetamide] the “inhibition effect against telomerase” value [5] was “exhibited inhibition effect against telomerase”, the “Cell survival rate (%) GBM8401” value [1] was 23 ± 13% and the “Cell survival rate (%) GBM8901” value [2] was 42 ± 3%. For the same compound, the “Cell survival rate (%) SVG p12” value [3] was 65 ± 3%.

`CCN(CC)C(=O)CCSc1nc2ccc3c(c2[nH]1)C(=O)c1ccccc1C3=O` [f1-20, 3-(6,11-dioxo-6,11-dihydro-1H-anthra[1,2-d]imidazol-2-ylthio)-N,N-diethylpropanamide] was tested, and the “Cell survival rate (%) GBM8401” value [1] was 28 ± 11%, the “Cell survival rate (%) GBM8901” value [2] was 30 ± 2% and the “Cell survival rate (%) SVG p12” value [3] was 46 ± 2%.

In the case of `O=C1c2ccccc2C(=O)c2c1ccc1nc(SCC(=O)N3CCCC3)[nH]c21` [f1-21, 2-(2-oxo-2-(pyrrolidin-1-yl)ethylthio)-1H-anthra[1,2-d]imidazole-6,11-dione], the “inhibition effect against telomerase” value [5] is reported as “exhibited inhibition effect against telomerase”, the “Cell survival rate (%) GBM8401” value [1] is reported as 30 ± 10% and the “Cell survival rate (%) GBM8901” value [2] is reported as 38 ± 5%. For the same compound, the “Cell survival rate (%) SVG p12” value [3] was 63 ± 1%.

For `O=C1c2ccccc2C(=O)c2c1ccc1nc(SCCC(=O)N3CCCC3)[nH]c21` [f1-22, 2-(3-oxo-3-(pyrrolidin-1-yl)propylthio)-1H-anthra[1,2-d]imidazole-6,11-dione], the “Cell survival rate (%) GBM8401” value [1] was 40 ± 15%, the “Cell survival rate (%) GBM8901” value [2] was 28 ± 2% and the “Cell survival rate (%) SVG p12” value [3] was 80 ± 3%. The “category 39-5: survival rate higher than 80% for normal cell SVG p12 and only inhibits growth of tumor cell GBM8901” value [4] was “in this category”.

For `CCCN(CCC)C(=O)CSc1nc2ccc3c(c2[nH]1)C(=O)c1ccccc1C3=O` [f1-23, 2-(6,11-dioxo-6,11-dihydro-1H-anthra[1,2-d]imidazol-2-ylthio)-N,N-dipropylacetamide], the “Cell survival rate (%) GBM8401” value [1] was 82 ± 15%, the “Cell survival rate (%) GBM8901” value [2] was 18 ± 0% and the “Cell survival rate (%) SVG p12” value [3] was 80 ± 7%. For the same compound, the “category 39-5: survival rate higher than 80% for normal cell SVG p12 and only inhibits growth of tumor cell GBM8901” value [4] was “in this category”.

`O=C1c2ccccc2C(=O)c2c1ccc1nc(SC(=O)N3CCOCC3)[nH]c21` [f2-2, S-6,11-dioxo-6,11-dihydro-1H-anthra[1,2-d]imidazol-2-yl morpholine-4-carbothioate] was tested, and the “inhibition effect against telomerase” value [5] was “exhibited inhibition effect against telomerase”, the “Cell survival rate (%) GBM8401” value [1] was 92 ± 11% and the “Cell survival rate (%) GBM8901” value [2] was 43 ± 2%. The “Cell survival rate (%) SVG p12” value [3] was 96 ± 7%.

For `O=C(CCc1ccccc1)Sc1nc2ccc3c(c2[nH]1)C(=O)c1ccccc1C3=O` [f2-4, S-6,11-dioxo-6,11-dihydro-1H-anthra[1,2-d]imidazol-2-yl 3-phenylpropanethioate], the “Cell survival rate (%) GBM8401” value [1] was 62 ± 15%, the “Cell survival rate (%) GBM8901” value [2] was 72 ± 6% and the “Cell survival rate (%) SVG p12” value [3] was 61 ± 2%.

`O=C(Sc1nc2ccc3c(c2[nH]1)C(=O)c1ccccc1C3=O)c1cc(C(F)(F)F)ccc1C(F)(F)F` [f2-5, S-6,11-dioxo-6,11-dihydro-1H-anthra[1,2-d]imidazol-2-yl 2,5-bis(trifluoromethyl)benzothioate] was tested, and the “Cell survival rate (%) GBM8401” value [1] was 40 ± 13%, the “Cell survival rate (%) GBM8901” value [2] was 68 ± 6% and the “Cell survival rate (%) SVG p12” value [3] was 82 ± 1%. The “category 39-3: survival rate higher than 80% for normal cell SVG p12 and inhibits growth of both tumor cells GBM8401 and GBM8901” value [4] was “in this category”.

For `O=C1c2ccccc2C(=O)c2c1ccc1nc(SC(=O)N3CCCC3)[nH]c21` [f2-7, S-6,11-dioxo-6,11-dihydro-1H-anthra[1,2-d]imidazol-2-yl pyrrolidine-1-carbothioate], the “Cell survival rate (%) GBM8401” value [1] was 72 ± 18%, the “inhibitory effect against tumor cell GBM8401” value [1] was “exhibited inhibitory effect against tumor cell GBM8401” and the “Cell survival rate (%) GBM8901” value [2] was 42 ± 7%. For the same compound, the “Cell survival rate (%) SVG p12” value [3] was 62 ± 5%.

`O=C1c2ccccc2C(=O)c2c1ccc1nc(SC(=O)N3CCCCC3)[nH]c21` [f2-8, S-6,11-dioxo-6,11-dihydro-1H-anthra[1,2-d]imidazol-2-yl piperidine-1-carbothioate] was tested, and the “Cell survival rate (%) GBM8401” value [1] was 99 ± 25%, the “Cell survival rate (%) GBM8901” value [2] was 100 ± 0% and the “Cell survival rate (%) SVG p12” value [3] was 92 ± 3%.

For `CCN(CC)C(=O)Sc1nc2ccc3c(c2[nH]1)C(=O)c1ccccc1C3=O` [f2-9, S-6,11-dioxo-6,11-dihydro-1H-anthra[1,2-d]imidazol-2-yl diethylcarbamothioate], the “Cell survival rate (%) GBM8401” value [1] was 46 ± 13%, the “inhibitory effect against tumor cell GBM8401” value [1] was “exhibited inhibitory effect against tumor cell GBM8401” and the “Cell survival rate (%) GBM8901” value [2] was 50 ± 0%. The “inhibitory effect against tumor cell GBM8901” value ([2]; survival rate less than 80%) was “exhibited inhibitory effect against tumor cell GBM8901”, the “Cell survival rate (%) SVG p12” value [3] was 90 ± 8% and the “category 39-3: survival rate higher than 80% for normal cell SVG p12 and inhibits growth of both tumor cells GBM8401 and GBM8901” value [4] was “in this category”.

From patent US8067454B2, “Thio-substituted Anthra [1, 2-d] imidazole- 6, 11-dione derivatives, preparation method and application thereof” (National Defense Medical Center, priority 2010, dated 2011)
